≈ marks a conversion by molar mass, not a printed value. Like-named read-outs stand apart in the source and are kept apart here.
Columns and labels:
B. subtilis = tested on: B. subtilis; parameters: method as in PMID 24575401; conditions: cited from earlier work
S. aureus = tested on: S. aureus; parameters: method as in PMID 24575401; conditions: cited from earlier work
Salmonella sp. = tested on: Salmonella sp.; parameters: method as in PMID 24575401; conditions: cited from earlier work
HeLa cancer cells = tested on: HeLa cancer cells; parameters: method as in doi:10.1016/j.sajb.2015.08.016; conditions: dose-dependent cytotoxicity; cited from earlier work
[1] = tested on: Candida albicans ATCC 10231; test: Serial dilution microplate MIC (fungi); type: cell-based; conditions: Table 2; for MIC: Candida albicans, read-out: Minimum inhibitory concentration (MIC) C. albicans; for Selectivity index C. albicans: in brackets, Vero LC50 vs MIC
Experimental: (§1) The MIC value of the plant extracts and isolated compounds against one fungal and five bacterial strains (Salmonella Typhimurium ATCC 39183, Escherichia coli ATCC 25922, Pseudomonas aeruginosa ATCC 27853, Staphylococcus aureus ATCC 29213, Enterococcus faecalis ATCC 29212, and fungi culture, Candida albicans ATCC 10231) was assessed in triplicate using the serial dilution microplate method; acetone and DMSO were used as solvents. Bacterial cultures were grown in Mueller Hinton broth (Sigma Aldrich, St. Louis, MO, USA) overnight and adjusted to McFarland standard 1 (1 × 10^8 CFU/mL). Then, 100 µL of samples were transferred into the first well of a sterile 96-well microtiter plate, which contained 100 µL of water and a 1:1 serial dilution with sterilized distilled water was carried out. In each well, 100 µL of appropriately adjusted fungal or bacterial cultures were added, and the bacteria were subjected to final concentrations of 250–3.9 μg/mL for pure compounds and 2.5–0.02 mg/mL for crude extracts. Amphotericin-B and Gentamicin (Virbac, Carros, France) served as positive controls for fungi and bacteria, respectively. For sterility, water served as control, while acetone served as a negative control. The microplates were then incubated for 24 h at 37 °C. Following incubation, 40 µL of 0.2 mg/mL p-iodonitrotetrazolium violet (INT, Sigma Aldrich) dissolved in water (hot) was added to the wells before being incubated at 37 °C for another 2 h. In the case of fungi, the INT was added before incubation. The MIC was measured visually as the lowest concentration of the compounds/extracts that inhibited proliferation.

[2] = tested on: one fungal and five bacterial strains; test: Serial dilution microplate MIC, whole panel; type: cell-based; conditions: isolated compounds, highest concentration 250 µg/mL
Experimental: as §1

in vitro = test: in vitro
Experimental: Cytotoxicity of compounds and extracts was tested against mammalian cells using the MTT assay. MCF-7 cancer cells were grown in a 5% CO2 incubator in Dulbecco’s Modified Eagle’s Medium (DMEM, Highveld Biological, Johannesburg, South Africa) supplemented with 10% fetal calf serum (Adcock-Ingram, Johannesburg, South Africa) and 1% penicillin-streptomycin (10,000 U/mL and 10 mg/mL streptomycin, Sigma Aldrich). In a 5% CO2 incubator, Vero cells were grown in a minimal essential medium (MEM, Highveld Biological, South Africa) supplemented with 5% fetal calf serum (Adcock-Ingram) and 0.1% gentamicin (Virbac). Cell suspensions were obtained from 70–80% confluent monolayer cultures and were plated in 96-well cell culture plates at a density of 1 × 10^4. Plates were incubated in a 5% CO2 incubator for 24 h at 37 °C. The cells were exposed to the extracts or compounds dissolved in the media at different concentrations for 48 h. Positive and negative controls were doxorubicin (Pfizer, New York, NYC, USA) and acetone or DMSO, respectively. After that, the wells were rinsed with phosphate-buffered saline (PBS, Sigma) and 200 µL of fresh medium was poured into the wells. Thirty microlitres (5 mg/mL) of MTT (Sigma) dissolved in PBS was added to each well, and the plates were incubated at 37 °C for 4 h. The medium from the wells was removed, rinsed, and 50 µL of 100% DMSO was added to the wells. At a wavelength of 570 nm, absorbance was measured using a microplate reader (BioTek Synergy, Beijing, China). Each sample concentration was tested in quadruplicate in two repeats (n = 8), and the concentration causing 50% inhibition of cell viability (LC50) was calculated. Selectivity index (SI) values for the extracts/compounds were obtained by dividing cytotoxicity LC50 values of normal (Vero) cells by those of the cancer cells.

Staphylococcus aureus = tested on: Staphylococcus aureus; parameters: method as in PMID 19007012; conditions: filter paper slice method; cited from earlier work
[3] = tested on: Salmonella Typhimurium ATCC 39183; test: Serial dilution microplate MIC; type: cell-based; conditions: for MIC: Salmonella enterica; for Selectivity index S. Typhimurium: in brackets, Vero LC50 vs MIC
Experimental: as §1

[4] = tested on: Pseudomonas aeruginosa ATCC 27853; test: Serial dilution microplate MIC; type: cell-based; conditions: Table 2; for MIC: Pseudomonas aeruginosa, read-out: Minimum inhibitory concentration (MIC) P. aeruginosa; for Selectivity index P. aeruginosa: in brackets, Vero LC50 vs MIC
Experimental: as §1

[5] = tested on: Staphylococcus aureus ATCC 29213; test: Serial dilution microplate MIC; type: cell-based; conditions: Table 2; for MIC: Staphylococcus aureus, read-out: Minimum inhibitory concentration (MIC) S. aureus; for Selectivity index S. aureus: in brackets, Vero LC50 vs MIC
Experimental: as §1

[6] = tested on: Enterococcus faecalis ATCC 29212; test: Serial dilution microplate MIC; type: cell-based; conditions: Table 2; for MIC: Enterococcus faecalis, read-out: Minimum inhibitory concentration (MIC) E. faecalis; for Selectivity index E. faecalis: in brackets, Vero LC50 vs MIC
Experimental: as §1

[7] = tested on: Escherichia coli ATCC 25922; test: Serial dilution microplate MIC; type: cell-based; conditions: Table 2; for MIC: Escherichia coli, ATCC25922, isolated compounds, read-out: Minimum inhibitory concentration (MIC) E. coli; for Selectivity index E. coli: in brackets, Vero LC50 vs MIC
Experimental: as §1

IL-6 production = tested on: IL-6 production; parameters: method as in PMID 25573777; conditions: TNF-α stimulated MG-63 cells; cited from earlier work
[8] = tested on: Staphylococcus aureus ATCC 43300; parameters: method as in PMID 31119085; conditions: cited from earlier work
[9] = parameters: method as in PMID 23878606; conditions: read-out: EC50 scavenging ABTS; cited from earlier work
[10] = tested on: Enterococcus faecium UCLA 192; parameters: method as in PMID 31119085; conditions: cited from earlier work
[11] = tested on: Stenotrophomonas maltophila DMST 19079; parameters: method as in PMID 31119085; conditions: cited from earlier work
[12] = parameters: method as in PMID 22693528; conditions: cited from earlier work
[13] = parameters: method as in PMID 23878606; conditions: read-out: EC50 scavenging DPPH; cited from earlier work
Candida albicans = tested on: Candida albicans; parameters: method as in PMID 22693528; conditions: cited from earlier work
P. aeruginosa = tested on: P. aeruginosa; parameters: method as in doi:10.1590/0102-695X20142413348; conditions: cited from earlier work
HepG2 cells = tested on: HepG2 cells; parameters: method as in ref 66 = [66]; 66. NCCLS 2007 Available online: http://www.nccls.org (accessed on 15 March 2022); conditions: cited from earlier work
Huh7 cells = tested on: Huh7 cells; parameters: method as in ref 66 = [66]; 66. NCCLS 2007 Available online: http://www.nccls.org (accessed on 15 March 2022); conditions: cited from earlier work
E. faecalis = tested on: E. faecalis; parameters: method as in doi:10.1590/0102-695X20142413348; conditions: cited from earlier work
[14] = tested on: S. aureus, MRSA, Proteus mirabilis, S. typhi, K. pneumoniae, E. coli, Bacillus subtilis, C. albicans and C. tropicalis; conditions: 200µg/mL; cited from earlier work
[15] = tested on: normal human primary fibroblasts; parameters: method as in ref 66 = [66]; 66. NCCLS 2007 Available online: http://www.nccls.org (accessed on 15 March 2022); conditions: cited from earlier work
[16] = isolated compounds, Table 2, read-out: Minimum inhibitory concentration (MIC) S. Typhimurium

Row | SMILES | MIC ([1]; ATCC10231, isolated compounds) [µg/mL] | Selectivity index C. albicans [1] | CC50 at 48 h (in vitro; monkey, LC50) [µg/mL] | MIC [3, 16] [µg/mL] | Selectivity index S. Typhimurium ([3]; Table 2) | MIC ([4]; ATCC27853, isolated compounds) [µg/mL] | Selectivity index P. aeruginosa [4] | MIC ([5]; ATCC29213, isolated compounds) [µg/mL] | Selectivity index S. aureus [5] | MIC ([6]; ATCC29212, isolated compounds) [µg/mL] | Selectivity index E. faecalis [6] | MIC [7] [µg/mL] | Selectivity index E. coli [7] | also measured
1 | C[C@@H]1CC[C@H]2[C@@H](C)C(=O)O[C@@H]3O[C@@]4(C)CC[C@@H]1[C@]32OO4 [Artemisinin] |  |  |  |  |  |  |  |  |  |  |  |  |  | MIC B. subtilis (B. subtilis): 90 µg/mL (≈ 319 µM); MIC S. aureus (S. aureus): 90 µg/mL (≈ 319 µM); MIC Salmonella sp. (Salmonella sp.): 90 µg/mL (≈ 319 µM)
2 | C=C1C(=O)O[C@@H]2C[C@@]3(C)CCCC(=C)[C@@H]3C[C@H]12 [Isoalantolactone] |  |  |  |  |  |  |  |  |  |  |  |  |  | IC50 (HeLa cancer cells): 8.15 ± 1.16 µM
3 | COc1cc2ccc(=O)oc2c(OC)c1O[C@H]1O[C@@H](CO)[C@H](O)[C@@H](O)[C@@H]1O [Isofraxidin-7-O-β-D-glucopyranoside, isofraxidin-7-O-β-D-glucopyranoside] | 250 (≈ 650 µM) | > 0.8 | > 200 | 250 (≈ 650 µM) | > 0.8 | > 250 | < 0.8 | 250 (≈ 650 µM) | > 0.8 | > 250 | < 0.8 | 250 (≈ 650 µM) | > 0.8 | MIC ([2]; all tested strains, read-out: MIC against all tested microorganisms): ≥ 250 µg/mL; MIC against all tested microorganisms [2]: no efficacy; Anti-bacterial effect against Staphylococcus aureus (Staphylococcus aureus): no activity; Inhibitory activity against IL-6 production (IL-6 production): 14%
4 | COc1cc2ccc(=O)oc2cc1O [Scopoletin, scopoletin] |  | > 0.8 |  |  | > 1.6 |  | < 0.8 | 250 (≈ 1300 µM) | > 0.8 |  |  | 62.5 (≈ 325 µM) | > 3.2 | MIC Staphylococcus aureus ATCC 43300 [8]: 128 µg/mL (≈ 666 µM); EC50 [9]: 191.51 ± 0.01 µM; MIC ([1]; ATCC10231, 24 h, isolated compounds): 250 µg/mL (≈ 1300 µM); MIC Enterococcus faecium UCLA 192 [10]: 128 µg/mL (≈ 666 µM); CC50 at 48 h (in vitro): > 200 µg/mL; MIC Stenotrophomonas maltophila DMST 19079 [11]: 256 µg/mL (≈ 1330 µM); IC50 DPPH radical [12]: 1.24 µg/mL (≈ 6.45 µM); EC50 [13]: 647.89 ± 0.07 µM; Activity against Candida albicans (Candida albicans): ineffective; MIC ([3]; read-out: Minimum inhibitory concentration (MIC) S. Typhimurium, isolated compounds, Table 2): 125 µg/mL (≈ 650 µM); MIC ([4]; ATCC27853, 24 h, isolated compounds): > 250 µg/mL; MIC ([5]; ATCC29213, 24 h, isolated compounds): 250 µg/mL (≈ 1300 µM); MIC ([6]; ATCC29212, 24 h, isolated compounds): 250 µg/mL (≈ 1300 µM); Selectivity index E. coli ([7]; listed as scopoletin): 3
5 | CC[C@@H](CC[C@@H](C)[C@H]1CC[C@H]2[C@@H]3CC=C4C[C@@H](O[C@H]5O[C@@H](CO)[C@H](O)[C@@H](O)[C@@H]5O)CC[C@]4(C)[C@H]3CC[C@]12C)C(C)C [Sitosterol-3-O-β-D-glucopyranoside, sitosterol-3-O-β-D-glucopyranoside] | 250 (≈ 433 µM) | > 0.8 | > 200 | > 250 | < 0.8 | > 250 | < 0.8 | > 250 | < 0.8 | 31.2 (≈ 54.2 µM) | > 6.4 | > 250 | < 0.8 | MIC P. aeruginosa (P. aeruginosa): 10 µg/mL (≈ 17.3 µM); IC50 proliferation of HepG2 cells (HepG2 cells): 4.64 ± 0.48 µg/mL; IC50 proliferation of Huh7 cells (Huh7 cells): 5.25 ± 0.14 µg/mL; MIC E. faecalis (E. faecalis): 15 µg/mL (≈ 26 µM); Anti-bacterial and anti-fungal activity [14]: wide spectrum of anti-bacterial and anti-fungal activity; Cytotoxic effects on normal human primary fibroblasts [15]: not against normal human primary fibroblasts; Selectivity index E. faecalis ([6]; listed as sitosterol-3-O-β-D-glucopyranoside): more than 6

Reference: article PMC10574767, “Extractives from Artemisia afra with Anti-Bacterial and Anti-Fungal Properties” (Plants, 2023)
